# Experimental data taken from US20190390277A1, “DIAGNOSIS OF PARKINSON'S DISEASE ON THE BASIS OF DECREASED OVERALL TRANSLATION” (ÅBO AKADEMI UNIVERSITY, priority 2016, published 2019).
# “Also recorded” adds a separate entry of the source.
# Legend:
# dopaminergic neurons [1] = test: Rotenone-induced neurite atrophy of TH-positive dopaminergic neurons in midbrain cultures; assay type: cell-based, rat; settings: 24 h; for effect on rotenone induced loss of neurites in dopaminergic neurons: LRRK2-IN1 1 μM, GSK-2578215A 1 μM, MLi-2 10 or 50 nM, with rotenone
# Procedure: The cultures were immunostained for Tyrosine hydroxylase to identify dopaminergic neurons. The percentage of dopaminergic, TH-positive cells that had intact neurites are shown. […] Mean data +/− standard deviation from two independent experiments are shown. Over 300 cells were scored per condition. b) A representative fluorescence micrograph showing TH immunostaining (green) dopaminergic neurons is shown. (c,d) Treatment with three structurally different LRRK2 inhibitors, LRRK2-IN1 (1 μM), GSK-2578215A (1 μM) or MLi-2 (10 or 50 nM) prevented rotenone induced loss of neurites in the dopaminergic neurons. […] Standard errors of the mean are shown. #, p<0.0001.
# Methods. Rotenone treatment of cell cultures—Midbrain neurons from P0 rat were plated at a density of 200,000 cells per well. At 3 days in vitro, cells were treated with rotenone in DMSO with or without IN1, GSK-2578215A of MLi-2 at the concentrations indicated. After 24 h, cells were fixed with 4% PFA in PBS and tyrosine hydroxylase (TH) was detected by standard immunostaining methods obvious to those skilled in the art. Cells were imaged using a Zeiss AxioVert 200M microscope. To measure atrophy, the % of TH-positive neurons with intact neurites was scored.
# hippocampal neurons [2] = test: FUNCAT (AHA/Alexa-488) protein translation in hippocampal neurons; assay type: cell-based, rat; settings: for dose (as low as) at which protein synthesis was significantly increased: hippocampal neuron somas and dendrites; for level of de novo protein synthesis (fluorescence intensity): hippocampal neurons, soma and dendrites
# Excerpt: Objective. To test whether Lrrk2 regulated ribosomal function in neurons, we measured the effect of three structurally independent inhibitors of Lrrk2 on de novo protein synthesis using non-canonical amino acid labeling. Rat hippocampal neurons were labelled using L-azido-homoalanine (AHA), a methionine analogue, followed by copper-I-catalyzed alkyne-azide cycloaddition of Alexa-488 with an alkyne moiety to visualize newly synthesized proteins, as previously de-scribed^8.
# Methods. Measuring protein translation in hippocampal neurons using FUNCAT. To measure protein translation, hippocampal neurons were plated at densities of 100,000 cells per well on round coverslips (1.3 cm diameter) in 24-well plates. Protein translation was measured following 20 h after plating. Cells were washed once and incubated with methionine-free DMEM medium (Gibco, Thermo Fisher Scientific) supplemented with 2 mM glutamine. Then 1 mM L-azidohomoalanine (AHA) was added for 30 min. Cells were washed with 1 ml PBS and fixed with 4% paraformaldehyde. LRRK2 inhibitors, when used, were added in the methionine-free medium and retained throughout the AHA labelling procedure. Cells were permeabilized in block solution (0.25% Triton X100, 0.2% BSA, 5% sucrose, 10% horse serum in PBS), and washed 5 times with 1 ml of 3% BSA in PBS. In situ labeling with AHA was achieved using a click-it reaction to covalently Alexa-488, using reagents from ThermoFisher Life Technologies (catalogue #A10267). Coverslips were mounted in Mowiol containing 2.5% 1,4-Diazabicyclo[2.2.2]octane. Fluorescent images were acquired using a Leica DMRE microscope and Hamamatsu Photonics ORCA C4742-95 CCD camera and Zen software (Carl Zeiss). Mean fluorescence intensities were measured from regions of interest in the perisomal region. Dendrite measurements were taken from line intensities (10 μm lines from the soma into the dendrite).
# patient skin fibroblasts = test: Nascent protein synthesis (AHA/Alexa-488) in PD patient skin fibroblasts; assay type: cell-based, human; settings: sporadic and G2019S PD fibroblasts; 1 μM IN1 or 0.01 μM MLi-2
# Procedure: Methods. For FIG. 7, we measured mRNA translation in fibroblasts cultivated from patient skin biopsies using the non-canonical labelling approach outlined in example 4 with the following modifications. Fibroblasts were passaged upon reaching 95% confluence and assayed at passage 7-9. For measurement of nascent protein synthesis, fibroblasts at 48 h post plating were depleted of methionine and incubated with AHA, followed by AHA-click conjugation of Alexa-488 as described in the methods section of example 4. Average somatic fluorescent intensities were measured. As not all fibroblast lines could be assayed simultaneously, patient lines were paired with one or more control lines of equivalent passage and assayed on the same day.
# dopaminergic neurons [3] = test: FUNCAT protein translation in midbrain cultures (dopaminergic neurons); assay type: cell-based; settings: TH-positive neurons, 3 days post-plating
# Excerpt: FIG. 6 uses click chemistry to label newly synthesised proteins with AHA. […] Dopaminergic neurons are visualised by tyrosine hydroxylase (TH) staining. a) Representative images of midbrain cultures treated with increasing concentrations of Lrrk2 IN2, and stained for TH is shown. b,c) protein translation in the somas of TH-positive and TH-negative cells is shown. d) The effect of anisomycin (to inhibit translation) on mid brain culture de novo protein synthesis is shown by representative images. e) Quantitative data from d is shown. p-values are shown on the graphs above the data points to which they apply.
# Methods. To measure protein translation in dopaminergic neurons, mid brain cultures were plated at densities of 500,000 cells per well on round coverslips (1.3 cm diameter) in 24-well plates. At 3 days post-plating neurons underwent FUNCAT (see example 4). Dopaminergic neurons were detected by tyrosine hydroxylase immunofluorescence. Fluorescent intensity was measured as described in example 4 (methods).
# PBMCs and fibroblasts = test: AHA labelling, biotin-alkyne enrichment and anti-biotin-HRP immunoblot of nascent proteins in PBMCs and fibroblasts; assay type: cell-based, human; settings: AHA-labelled PBMCs and fibroblasts, streptavidin bead purification
# Excerpt: Patient samples were from the NINDS-Coriell Institute in the USA, the European Biobank in Milan and the Turku University Hospital (T.U.H.) cohort in Finland. a) A heat map showing intensity values for MS/MS-identified nascent proteins from AHA-labelled cells (fibroblasts and PBMCs). Nascent proteins were isolated following covalent linkage to alkyne-agarose beads. After tryptic digestion, the released peptides were sequenced by mass spectrometry and identified using Maxquant software. As negative controls to determine non-specific protein binding, cells were labelled with methionine instead of AHA. […] This approach yields a set of peptides that can be rapidly quantitated using a mass spectrometer using data dependant acquisition (DDA) using Selected Reaction Monitoring or Parallel Reaction Monitoring or by data independent acquisition (DIA) or using other types of mass spectrometry methods. […] It is compared to samples that were labelled with methionine instead of AHA. […]
# Sepharose was washed 2× with 1 ml LiCl buffer (500 mM LiCl2, 100 mM Tris, pH 7.6, 0.1% TX100, 1 mM DTT), followed by 4×1 ml PBS washes. […] Samples were either in-gel digested with trypsin for MS/MS identification (example 1) or transferred to nitrocellulose for quantitative immunoblot detection using an anti-biotin, horse-radish peroxidase (HRP)-conjugated antibody (Cell Signalling Technology) (example 9b). […]
# BHK21 cells = test: Protein translation by AHA labelling and click Alexa-488 in rotenone-treated BHK21 cells; assay type: cell-based; settings: rotenone 100 nM, 1 μM LRRK2-IN1
# Procedure: Furthermore, LRRK2-G2019S directly impairs protein translation in a reconstituted translation system. a) LRRK2 activity is inferred using a phospho-specific antibody ([…]) that recognises the active form of LRRK2. b) Quantitative data from 6 independent repeats as shown in (a). c, d) To determine whether inhibition of LRRK2 kinase activity could recover normal protein translation in cultured cells, BHK21 cells were treated with or without rotenone (100 nM) in the presence or absence of the indicated concentration of LRRK2-IN1. Protein translation was measured using non-canonical amino acid labelling with AHA followed by copper-catalysed click addition of alkyne-Alexa-488. Representative fluorescent micrographs (c) and quantitative data (d) are shown. […] Standard errors of the mean are plotted. #, p<0.0001.
# To determine whether inhibition of LRRK2 activity could recover normal translation in BHK21 cells following rotenone treatment, BHK21 cells with or without prior treatment (30 min) with LRRK2 inhibitor (1 or 10 μM of IN1) were treated with rotenone or carrier (control) as indicated. Translation was visualized following AHA labeling and immunofluorescence quantified as earlier.
# Lrrk2 [4] = target: Lrrk2 (Homo sapiens, UniProt Q5S007); settings: blocks Lrrk2; read-out: biochemical IC50; cited from earlier work
# hippocampal neurons [5] = test: S35-methionine metabolic labelling of de novo protein synthesis in hippocampal neurons; assay type: cell-based; settings: rotenone 0.01-10 μM, 2 hr
# Procedure: Methods. Measurement of protein translation using various S35-methioine-labelling—In order to model PD in vitro, hippocampal neurons were metabolically labelled with S35-methionine. Hippocampal neurons in 24 well plates were transferred to Met/Cys-free medium (Invitrogen, Gibco). Cells were treated with for 30 min 37 C, 5% CO2. 50 μl per well of labeling medium (100 μCi Met-S35/ml) was added and cells grown at 37°, 5% CO2 for 2 hr in the presence or absence of rotenone (0.01-10 μM). Cells were washed and lysed in 75 μl Laemmli lysis buffer. Samples were separated by SDS PAGE, incubated with EN3HANCE (NEN), gels dried and exposed to auto-radiographic film with intensifying screen to determine relative levels of de novo protein synthesis.
# Lrrk2 [6] = target: T1, Lrrk2 (Mesocricetus auratus, UniProt A0A1U7Q7Z2); test: LRRK2 activity by phospho-S935-LRRK2 immunoblot in BHK21 cells; assay type: cell-based; settings: intact BHK21 cells, rotenone 4 h
# T1 construct: endogenous in cells; host or cells: BHK21 cells
# Procedure: Methods. To examine the effect of rotenone treatment on LRRK2 activity, BHK21 cells were treated with or without the indicated dose of rotenone for 4 h. Cells were lysed in Laemmli buffer and proteins separated by SDS PAGE. LRRK2 activity was determined by immunoblotting with an antibody detecting phospho-S935-LRRK2. Blots were reprobed with an antibody detecting LRRK2 to establish loading variability. LRRK2 activity was quantified by densitometry of gel exposures captured using the Gel Doc XR system (Biorad).
# T1 sequence (A0A1U7Q7Z2 1-2527): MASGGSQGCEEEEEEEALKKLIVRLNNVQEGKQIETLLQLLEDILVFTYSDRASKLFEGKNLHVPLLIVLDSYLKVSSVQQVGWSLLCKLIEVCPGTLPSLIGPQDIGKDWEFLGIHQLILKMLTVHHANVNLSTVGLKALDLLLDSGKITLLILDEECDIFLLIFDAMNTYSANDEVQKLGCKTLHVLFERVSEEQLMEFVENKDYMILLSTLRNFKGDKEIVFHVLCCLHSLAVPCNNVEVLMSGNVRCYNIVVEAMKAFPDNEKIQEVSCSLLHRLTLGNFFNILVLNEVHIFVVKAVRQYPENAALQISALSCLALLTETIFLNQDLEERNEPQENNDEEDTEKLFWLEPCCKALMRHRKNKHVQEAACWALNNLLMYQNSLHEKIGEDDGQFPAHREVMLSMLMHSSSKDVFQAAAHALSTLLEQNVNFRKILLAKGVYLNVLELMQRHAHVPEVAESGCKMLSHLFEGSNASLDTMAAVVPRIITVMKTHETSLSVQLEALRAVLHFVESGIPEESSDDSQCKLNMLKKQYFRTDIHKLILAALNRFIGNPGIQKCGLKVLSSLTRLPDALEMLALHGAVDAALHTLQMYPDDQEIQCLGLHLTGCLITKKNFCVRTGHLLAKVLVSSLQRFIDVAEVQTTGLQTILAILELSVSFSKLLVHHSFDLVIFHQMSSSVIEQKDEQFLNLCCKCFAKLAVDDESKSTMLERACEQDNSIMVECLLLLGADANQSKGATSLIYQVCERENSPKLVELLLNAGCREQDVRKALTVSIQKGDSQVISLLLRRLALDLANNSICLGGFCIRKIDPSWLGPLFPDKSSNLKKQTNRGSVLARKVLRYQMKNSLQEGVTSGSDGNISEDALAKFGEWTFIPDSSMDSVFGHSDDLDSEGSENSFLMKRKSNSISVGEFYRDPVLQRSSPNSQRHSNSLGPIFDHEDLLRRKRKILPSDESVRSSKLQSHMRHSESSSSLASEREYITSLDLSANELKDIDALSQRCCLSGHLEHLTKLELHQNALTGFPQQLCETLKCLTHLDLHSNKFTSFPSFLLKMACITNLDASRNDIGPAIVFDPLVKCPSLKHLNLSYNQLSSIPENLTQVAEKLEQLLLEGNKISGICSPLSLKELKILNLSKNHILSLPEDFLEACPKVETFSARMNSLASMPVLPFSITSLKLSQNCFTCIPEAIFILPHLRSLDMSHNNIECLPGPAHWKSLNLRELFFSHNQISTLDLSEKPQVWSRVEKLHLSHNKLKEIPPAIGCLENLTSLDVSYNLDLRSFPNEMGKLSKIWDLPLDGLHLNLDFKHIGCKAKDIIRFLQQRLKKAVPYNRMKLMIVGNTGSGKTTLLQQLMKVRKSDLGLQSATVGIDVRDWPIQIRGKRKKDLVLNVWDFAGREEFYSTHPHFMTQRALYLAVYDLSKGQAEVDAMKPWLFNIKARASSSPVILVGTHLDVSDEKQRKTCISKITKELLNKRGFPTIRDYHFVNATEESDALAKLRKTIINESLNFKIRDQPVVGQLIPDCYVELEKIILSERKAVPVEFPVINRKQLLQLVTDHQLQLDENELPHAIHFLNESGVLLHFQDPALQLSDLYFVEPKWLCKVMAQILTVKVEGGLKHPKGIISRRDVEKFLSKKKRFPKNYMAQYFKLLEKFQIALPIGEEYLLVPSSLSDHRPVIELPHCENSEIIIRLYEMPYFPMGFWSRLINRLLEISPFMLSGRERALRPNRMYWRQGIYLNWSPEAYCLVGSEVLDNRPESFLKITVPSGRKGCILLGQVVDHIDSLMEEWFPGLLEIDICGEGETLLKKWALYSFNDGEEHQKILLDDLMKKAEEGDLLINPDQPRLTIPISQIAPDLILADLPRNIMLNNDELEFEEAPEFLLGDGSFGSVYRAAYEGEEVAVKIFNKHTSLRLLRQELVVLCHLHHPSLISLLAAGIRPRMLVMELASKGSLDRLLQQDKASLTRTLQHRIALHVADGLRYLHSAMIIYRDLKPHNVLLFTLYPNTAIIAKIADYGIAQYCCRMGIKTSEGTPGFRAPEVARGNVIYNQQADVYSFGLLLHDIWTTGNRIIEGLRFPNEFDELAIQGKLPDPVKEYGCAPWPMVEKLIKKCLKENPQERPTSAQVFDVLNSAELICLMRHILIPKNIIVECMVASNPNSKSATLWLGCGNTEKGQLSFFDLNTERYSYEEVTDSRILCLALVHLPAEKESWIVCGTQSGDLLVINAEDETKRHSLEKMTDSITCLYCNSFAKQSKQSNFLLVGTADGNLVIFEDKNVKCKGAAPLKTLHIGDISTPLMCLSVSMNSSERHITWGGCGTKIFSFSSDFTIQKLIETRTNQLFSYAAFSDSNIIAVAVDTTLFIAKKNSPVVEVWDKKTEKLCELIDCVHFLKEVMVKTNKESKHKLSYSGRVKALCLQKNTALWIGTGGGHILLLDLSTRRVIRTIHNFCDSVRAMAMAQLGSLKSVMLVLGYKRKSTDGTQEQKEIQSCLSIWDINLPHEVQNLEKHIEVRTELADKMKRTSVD
# Chain of Lrrk2 (Homo sapiens, UniProt Q5S007) (Q5S007 whole entry, species assumed): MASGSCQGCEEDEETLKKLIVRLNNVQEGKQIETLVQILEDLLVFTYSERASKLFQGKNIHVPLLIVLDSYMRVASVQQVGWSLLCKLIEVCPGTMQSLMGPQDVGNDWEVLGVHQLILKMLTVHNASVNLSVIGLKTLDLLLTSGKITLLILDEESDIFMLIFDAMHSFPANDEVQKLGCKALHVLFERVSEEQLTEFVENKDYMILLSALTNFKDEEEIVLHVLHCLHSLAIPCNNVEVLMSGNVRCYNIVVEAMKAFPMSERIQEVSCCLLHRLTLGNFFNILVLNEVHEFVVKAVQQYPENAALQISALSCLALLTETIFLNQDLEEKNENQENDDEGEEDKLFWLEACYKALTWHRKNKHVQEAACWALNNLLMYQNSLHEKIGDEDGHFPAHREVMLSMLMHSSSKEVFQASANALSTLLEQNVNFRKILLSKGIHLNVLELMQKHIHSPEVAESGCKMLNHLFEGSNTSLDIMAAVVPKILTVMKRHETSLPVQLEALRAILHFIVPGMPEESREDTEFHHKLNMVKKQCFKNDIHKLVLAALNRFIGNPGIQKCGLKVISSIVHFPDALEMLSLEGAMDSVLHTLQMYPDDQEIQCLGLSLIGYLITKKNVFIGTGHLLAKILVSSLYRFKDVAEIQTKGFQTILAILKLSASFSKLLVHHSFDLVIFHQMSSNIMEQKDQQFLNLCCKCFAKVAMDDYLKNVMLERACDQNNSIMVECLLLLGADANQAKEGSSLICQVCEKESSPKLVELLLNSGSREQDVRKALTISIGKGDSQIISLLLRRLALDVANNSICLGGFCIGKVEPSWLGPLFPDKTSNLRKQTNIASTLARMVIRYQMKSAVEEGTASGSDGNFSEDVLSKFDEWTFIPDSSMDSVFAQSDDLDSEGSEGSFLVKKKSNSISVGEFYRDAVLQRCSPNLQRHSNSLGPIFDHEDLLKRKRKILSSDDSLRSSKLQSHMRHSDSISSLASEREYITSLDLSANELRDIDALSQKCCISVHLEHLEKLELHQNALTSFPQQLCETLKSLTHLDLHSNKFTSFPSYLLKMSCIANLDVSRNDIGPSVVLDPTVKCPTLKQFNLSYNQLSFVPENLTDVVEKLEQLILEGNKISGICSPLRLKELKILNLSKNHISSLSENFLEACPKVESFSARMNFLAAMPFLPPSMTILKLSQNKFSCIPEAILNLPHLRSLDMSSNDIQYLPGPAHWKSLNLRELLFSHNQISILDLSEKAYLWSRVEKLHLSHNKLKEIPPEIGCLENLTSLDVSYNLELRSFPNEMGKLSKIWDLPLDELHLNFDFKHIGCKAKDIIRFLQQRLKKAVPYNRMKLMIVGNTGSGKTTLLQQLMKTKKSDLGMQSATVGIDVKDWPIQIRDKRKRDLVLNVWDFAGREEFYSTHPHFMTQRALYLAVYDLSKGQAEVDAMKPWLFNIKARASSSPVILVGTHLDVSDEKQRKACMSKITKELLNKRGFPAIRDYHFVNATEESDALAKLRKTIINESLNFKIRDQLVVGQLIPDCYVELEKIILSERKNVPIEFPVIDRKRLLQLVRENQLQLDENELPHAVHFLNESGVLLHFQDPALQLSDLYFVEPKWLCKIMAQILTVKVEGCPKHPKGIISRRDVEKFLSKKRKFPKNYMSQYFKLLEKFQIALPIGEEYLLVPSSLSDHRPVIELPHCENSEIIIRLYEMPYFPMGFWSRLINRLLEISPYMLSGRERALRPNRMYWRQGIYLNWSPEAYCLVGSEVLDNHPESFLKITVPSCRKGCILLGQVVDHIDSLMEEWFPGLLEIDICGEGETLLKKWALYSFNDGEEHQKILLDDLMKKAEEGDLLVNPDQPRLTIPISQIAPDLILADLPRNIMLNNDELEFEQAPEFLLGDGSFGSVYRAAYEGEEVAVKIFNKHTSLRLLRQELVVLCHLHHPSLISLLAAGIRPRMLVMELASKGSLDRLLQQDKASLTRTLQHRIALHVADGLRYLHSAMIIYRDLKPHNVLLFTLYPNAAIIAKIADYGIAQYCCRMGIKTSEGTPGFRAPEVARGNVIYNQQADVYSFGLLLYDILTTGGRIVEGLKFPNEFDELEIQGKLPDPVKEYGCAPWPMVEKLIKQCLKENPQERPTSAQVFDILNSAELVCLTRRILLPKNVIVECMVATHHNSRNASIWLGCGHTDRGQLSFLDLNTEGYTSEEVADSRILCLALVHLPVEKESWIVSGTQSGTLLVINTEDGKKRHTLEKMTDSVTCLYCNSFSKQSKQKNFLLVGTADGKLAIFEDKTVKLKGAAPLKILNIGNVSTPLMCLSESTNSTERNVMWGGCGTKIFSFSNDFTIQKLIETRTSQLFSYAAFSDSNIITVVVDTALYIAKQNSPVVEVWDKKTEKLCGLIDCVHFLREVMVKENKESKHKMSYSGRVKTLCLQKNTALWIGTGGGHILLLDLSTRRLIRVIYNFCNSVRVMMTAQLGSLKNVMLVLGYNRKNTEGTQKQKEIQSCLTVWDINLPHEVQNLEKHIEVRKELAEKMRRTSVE
Molecule,effect on rotenone induced loss of neurites in dopaminergic neurons (dopaminergic neurons [1]),dose (as low as) at which protein synthesis was significantly increased (hippocampal neurons [2]) [µM],level of de novo protein synthesis (fluorescence intensity) (hippocampal neurons [2]),reversal of decreased protein synthesis in PD patient fibroblasts (patient skin fibroblasts),also measured
3-(4-Pyrinimidyl) Indazole [MLi-2],prevented,0.01,increased,reversed to a normal level,–
COc1ccc(C[C@H]2NC[C@H](O)[C@H]2OC(C)=O)cc1 [Anisomycin],–,–,effectively inhibited,–,protein translation (fluorescence) (dopaminergic neurons [3]): effectively reduced; anti-biotin immunoblot signal of nascent proteins (PBMCs and fibroblasts): no signal
O=C(Nc1cccnc1)c1cc(-c2ccnc(F)c2)ccc1OCc1ccccc1 [GSK-2578215A],prevented,0.1,–,–,–
COc1cc(C(=O)N2CCC(N3CCN(C)CC3)CC2)ccc1Nc1ncc2c(n1)N(C)c1ccccc1C(=O)N2C [LRRK2-IN1],prevented,0.1,–,reversed,protein translation level after rotenone (BHK21 cells): recovered to control level; IC50 (Lrrk2 [4]): 10 nM
C=C(C)[C@H]1Cc2c(ccc3c2O[C@@H]2COc4cc(OC)c(OC)cc4[C@@H]2C3=O)O1 [Rotenone],–,–,–,–,de novo protein synthesis (S35-methionine labelling) (hippocampal neurons [5]): dose-dependently decreased; LRRK2 activity (phospho-S935-LRRK2) (Lrrk2 [6]): dose dependently increased; percentage of TH-positive cells with intact neurites (dopaminergic neurons [1]; rotenone 0-100 nM): induced atrophy; also recorded: dose dependent loss of neurites
